Measurements as given in US4705805A, “Antithrombotic agent” (priority 1978, dated 1987).

Key:
[1] = system: rabbit blood platelets (platelet rich plasma), ADP-induced aggregation; test: inhibition of platelet aggregation in rabbit platelet rich plasma (in vitro), induced by ADP; assay type: cell-based; conditions: rabbit PRP, ADP 10^-5 M; for inhibition at 30 µg/mL / inhibition at 100 µg/mL / inhibition at 10 µg/mL / inhibition at 3 µg/mL: Oryctolagus cuniculus, Platelet, read-out: percentage of inhibition, ADP; for inhibition at 30 µg/mL: 30 μg/ml; for inhibition at 10 µg/mL: 10 μg/ml; for inhibition at 3 µg/mL: 3 μg/ml
Protocol: (§1) In this example, the inhibition of platelet aggregation in rabbit platelet rich plasma (in vitro) is tested.
(§2) In this test, 9 vol. of blood is sampled from the carotid artery of rabbits (2 to 2.5 Kg) and placed in a silicon-coated flask containing 1 vol. of 3.8% sodium citrate. The thus obtained blood is centrifuged at 1,000 rpm for 15 minutes to obtain platelet rich plasma (referred to as "PRP" hereinafter). The aggregation of blood platelets is observed using an aggregometer (made by Bryston Co.) and the degree of aggregation after the addition of aggregation promoting substances is measured by nephelometry, i.e., through increase in light transmission.
(§3) The PRP (0.9 ml) is placed in a silicon-coated cuvett of the aggregometer. Then, 0.05 ml of physiological saline solution containing various concentrations of test reagents or control reagents is added and the mixture is allowed to stand for one minute. Compounds promoting aggregation are then added and the absorbancy of the solution is measured and the percent inhibition of aggregation is calculated according to the following equation: [formula] C: Transmittancy showing the maximum percent aggregation by physiological saline solution
(§4) D: Transmittancy showing the maximum percent aggregation by sample
(§5) Test for the inhibition of platelet aggregation induced by ADP, collagen and thrombin.

[2] = system: rabbit blood platelets (platelet rich plasma), collagen-induced aggregation; test: inhibition of platelet aggregation in rabbit platelet rich plasma (in vitro), induced by collagen; assay type: cell-based; conditions: rabbit PRP; for inhibition at 30 µg/mL / inhibition at 100 µg/mL / inhibition at 10 µg/mL / inhibition at 1 µg/mL / inhibition at 3 µg/mL: Oryctolagus cuniculus, Platelet, read-out: percentage of inhibition, collagen; for inhibition at 30 µg/mL: 30 μg/ml; for inhibition at 10 µg/mL: 10 μg/ml; for inhibition at 1 µg/mL: 1 μg/ml; for inhibition at 3 µg/mL: 3 μg/ml
Protocol: as §1, §2, §3, §4, §5

[3] = acute toxicity, Behrens-Karber's method; assay type: in vivo; conditions: in vivo; mouse, oral
Protocol: In this example, the acute toxicity of compounds of the invention is determined by Behrens-Karber's method using, 5 male dd-strain for each group weighing 20±1 g. A 0.3% CMC suspension of the test compound (concentration of the test compound: 100 mg/ml) is then orally administered to each mouse.

[4] = system: human platelet rich plasma, ADP-induced aggregation; test: inhibition of platelet aggregation in human platelet rich plasma, induced by ADP; assay type: cell-based; conditions: human PRP, read-out: percentage inhibition, ADP
Protocol: as §2, §3, §4
(§6) In this example, the same procedures are repeated as in Example 10 except that human platelet rich plasma is used in place of rabbit platelet rich plasma.

[5] = system: human platelet rich plasma, collagen-induced aggregation; test: inhibition of platelet aggregation in human platelet rich plasma, induced by collagen; assay type: cell-based; conditions: human PRP, read-out: percentage inhibition, collagen
Protocol: as §2, §3, §4, §6

2,2'-dithiobis(N-naphthylbenzamide) [Compound XXXIX]
percentage of inhibition, ADP ([1]; 100 μg/ml): 25% | percentage of inhibition, collagen ([2]; 100 μg/ml): 12%

CCCCNC(=O)c1ccccc1SSc1ccccc1C(=O)NCCCC [Compound I, 2,2'-dithiobis(N-n-butylbenzamide)]
inhibition at 30 µg/mL [1]: 13.4% | inhibition at 100 µg/mL ([1]; 100 μg/ml): 46.6% | inhibition at 30 µg/mL [2]: 16.5% | inhibition at 100 µg/mL ([2]; 100 μg/ml): 100% | LD50 [3]: ≥ 300 mg/kg

O=C(NCc1ccccc1)c1ccccc1SSc1ccccc1C(=O)NCc1ccccc1 [Compound II, 2,2'-dithiobis(N-benzylbenzamide)]
inhibition at 100 µg/mL ([1]; 100 μg/ml): 2.7% | inhibition at 100 µg/mL ([2]; 100 μg/ml): 1.2% | LD50 [3]: ≥ 300 mg/kg

CCCCCCCCCCCCNC(=O)c1ccccc1SSc1ccccc1C(=O)NCCCCCCCCCCCC [Compound VI, 2,2'-dithiobis(N-dodecylbenzamide)]
inhibition at 30 µg/mL [1]: 0% | inhibition at 100 µg/mL ([1]; 100 μg/ml): 35% | inhibition at 30 µg/mL [2]: 0% | inhibition at 100 µg/mL ([2]; 100 μg/ml): 89%

CCCCCCCCCCCCCCCCCCNC(=O)c1ccccc1SSc1ccccc1C(=O)NCCCCCCCCCCCCCCCCCC [Compound VII, 2,2'-dithiobis(N-octadecylbenzamide)]
inhibition at 30 µg/mL [1]: 0% | inhibition at 100 µg/mL ([1]; 100 μg/ml): 10% | inhibition at 30 µg/mL [2]: 0% | inhibition at 100 µg/mL ([2]; 100 μg/ml): 38%

CCCCN(CCCC)C(=O)c1ccccc1SSc1ccccc1C(=O)N(CCCC)CCCC [Compound VIII, 2,2'-dithiobis(N-dibutylbenzamide)]
inhibition at 30 µg/mL [1]: 0% | inhibition at 100 µg/mL ([1]; 100 μg/ml): 9% | inhibition at 30 µg/mL [2]: 0% | inhibition at 100 µg/mL ([2]; 100 μg/ml): 13% | LD50 [3]: ≥ 1000 mg/kg

O=C(Nc1ccccc1Cl)c1ccccc1SSc1ccccc1C(=O)Nc1ccccc1Cl [Compound X, 2,2'-dithiobis(N-o-chlorophenylbenzamide)]
inhibition at 10 µg/mL [1]: 0% | inhibition at 30 µg/mL [1]: 24% | inhibition at 100 µg/mL ([1]; 100 μg/ml): 96% | inhibition at 10 µg/mL [2]: 4% | inhibition at 30 µg/mL [2]: 63% | inhibition at 100 µg/mL ([2]; 100 μg/ml): 100% | LD50 [3]: ≥ 1000 mg/kg

O=C(Nc1cccc(Cl)c1)c1ccccc1SSc1ccccc1C(=O)Nc1cccc(Cl)c1 [Compound XI, 2,2'-dithiobis(N-m-chlorophenylbenzamide)]
inhibition at 10 µg/mL [1]: 0% | inhibition at 30 µg/mL [1]: 29% | inhibition at 100 µg/mL ([1]; 100 μg/ml): 96% | inhibition at 10 µg/mL [2]: 0% | inhibition at 30 µg/mL [2]: 99% | inhibition at 100 µg/mL ([2]; 100 μg/ml): 100%

O=C(c1ccccc1SSc1ccccc1C(=O)N(c1ccccc1)c1ccccc1)N(c1ccccc1)c1ccccc1 [Compound XIII, 2,2'-dithiobis(N-diphenylbenzamide)]
inhibition at 30 µg/mL [1]: 16% | inhibition at 100 µg/mL ([1]; 100 μg/ml): 60% | inhibition at 30 µg/mL [2]: 12.2% | inhibition at 100 µg/mL ([2]; 100 μg/ml): 47%

CC(CCc1ccccc1)NC(=O)c1ccccc1SSc1ccccc1C(=O)NC(C)CCc1ccccc1 (stereo not drawn) [Compound XIV, 2,2'-dithiobis[N-(1-methyl-3-phenylpropyl)]benzamide]
inhibition at 30 µg/mL [1]: 28% | inhibition at 30 µg/mL [2]: 24%

O=C(NCCCO)c1ccccc1SSc1ccccc1C(=O)NCCCO [Compound XVI, 2,2'-dithiobis(N-3-hydroxypropylbenzamide)]
inhibition at 3 µg/mL [1]: 42% | inhibition at 10 µg/mL [1]: 64% | inhibition at 100 µg/mL ([1]; 100 μg/ml): 88% | inhibition at 1 µg/mL [2]: 8% | inhibition at 3 µg/mL [2]: 50% | inhibition at 10 µg/mL [2]: 78% | inhibition at 100 µg/mL ([2]; 100 μg/ml): 100%

O=C(NCCCCO)c1ccccc1SSc1ccccc1C(=O)NCCCCO [Compound XVII, 2,2'-dithiobis(N-4-hydroxybutylbenzamide)]
inhibition at 30 µg/mL [1]: 45% | inhibition at 100 µg/mL ([1]; 100 μg/ml): 100% | inhibition at 3 µg/mL [2]: 0% | inhibition at 10 µg/mL [2]: 97% | inhibition at 30 µg/mL [2]: 100% | inhibition at 100 µg/mL ([2]; 100 μg/ml): 100%

CCCCCCCCCCCCCCCC(=O)OCCNC(=O)c1ccccc1SSc1ccccc1C(=O)NCCOC(=O)CCCCCCCCCCCCCCC [Compound XX, 2,2'-dithiobis(N-2-hexadecanoyloxyethylbenzamide)]
inhibition at 30 µg/mL [1]: 0% | inhibition at 100 µg/mL ([1]; 100 μg/ml): 23% | inhibition at 30 µg/mL [2]: 0% | inhibition at 100 µg/mL ([2]; 100 μg/ml): 33%

CCCCCCCCCCCC(=O)OCCCNC(=O)c1ccccc1SSc1ccccc1C(=O)NCCCOC(=O)CCCCCCCCCCC [Compound XXI, 2,2'-dithiobis(N-dodecanoyloxypropylbenzamide)]
inhibition at 30 µg/mL [1]: 5% | inhibition at 100 µg/mL ([1]; 100 μg/ml): 32% | inhibition at 30 µg/mL [2]: 0% | inhibition at 100 µg/mL ([2]; 100 μg/ml): 33%

CCCCCCCCCCCCCCCC(=O)OCCCNC(=O)c1ccccc1SSc1ccccc1C(=O)NCCCOC(=O)CCCCCCCCCCCCCCC [Compound XXII, 2,2'-dithiobis(N-hexadecanoyloxypropylbenzamide)]
inhibition at 30 µg/mL [1]: 0% | inhibition at 100 µg/mL ([1]; 100 μg/ml): 40% | inhibition at 30 µg/mL [2]: 0% | inhibition at 100 µg/mL ([2]; 100 μg/ml): 18%

CCCCCCCCCCCC(=O)OC(C)CNC(=O)c1ccccc1SSc1ccccc1C(=O)NCC(C)OC(=O)CCCCCCCCCCC (stereo not drawn) [Compound XXIII, 2,2'-dithiobis(N-2-dodecanoyloxypropylbenzamide)]
inhibition at 30 µg/mL [1]: 19% | inhibition at 100 µg/mL ([1]; 100 μg/ml): 93% | inhibition at 30 µg/mL [2]: 52% | inhibition at 100 µg/mL ([2]; 100 μg/ml): 100%

CCCCCCCCCCCCCCCC(=O)OC(C)CNC(=O)c1ccccc1SSc1ccccc1C(=O)NCC(C)OC(=O)CCCCCCCCCCCCCCC (stereo not drawn) [Compound XXIV, 2,2'-dithiobis(N-2-hexadecanoyloxypropylbenzamide)]
inhibition at 30 µg/mL [1]: 0% | inhibition at 100 µg/mL ([1]; 100 μg/ml): 59% | inhibition at 30 µg/mL [2]: 19% | inhibition at 100 µg/mL ([2]; 100 μg/ml): 86%

CN1CCN(C(=O)c2ccccc2SSc2ccccc2C(=O)N2CCN(C)CC2)CC1 [Compound XXXII, 2,2'-dithiobis(N'-methylbenzpiperazide)]
inhibition at 3 µg/mL [1]: 26% | inhibition at 10 µg/mL [1]: 62% | inhibition at 30 µg/mL [1]: 100% | inhibition at 1 µg/mL [2]: 2% | inhibition at 3 µg/mL [2]: 59% | inhibition at 10 µg/mL [2]: 90% | inhibition at 30 µg/mL [2]: 100% | inhibition at 30 µg/mL ([4]; 30 μg/ml): 15% | inhibition at 100 µg/mL ([4]; 100 μg/ml): 60% | inhibition at 30 µg/mL ([5]; 30 μg/ml): 34% | inhibition at 100 µg/mL ([5]; 100 μg/ml): 100%

O=C(c1ccccc1SSc1ccccc1C(=O)N1CCN(C(c2ccccc2)c2ccccc2)CC1)N1CCN(C(c2ccccc2)c2ccccc2)CC1 [Compound XXXIII, 2,2'-dithiobis(N'-diphenylmethylbenzpiperazide)]
inhibition at 30 µg/mL [1]: 16% | inhibition at 30 µg/mL [2]: 22%

COC(CNC(=O)c1ccccc1SSc1ccccc1C(=O)NCC(OC)OC)OC [Compound XXXIV, 2,2'-dithiobis(N-2,2-di-methoxyethylbenzamide)]
inhibition at 3 µg/mL [1]: 21% | inhibition at 10 µg/mL [1]: 35% | inhibition at 30 µg/mL [1]: 83% | inhibition at 3 µg/mL [2]: 21% | inhibition at 10 µg/mL [2]: 87% | inhibition at 30 µg/mL [2]: 100%

CCOCCCNC(=O)c1ccccc1SSc1ccccc1C(=O)NCCCOCC [Compound XXXV, 2,2'-dithiobis(N-3-ethyloxypropylbenzamide)]
inhibition at 100 µg/mL ([1]; 100 μg/ml): 35% | inhibition at 10 µg/mL [2]: 15% | inhibition at 30 µg/mL [2]: 31% | inhibition at 100 µg/mL ([2]; 100 μg/ml): 100%

O=C(NC1CCC(O)CC1)c1ccccc1SSc1ccccc1C(=O)NC1CCC(O)CC1 (stereo not drawn) [Compound XXXVI, 2,2'-dithiobis[N-(4-hydroxycyclohexyl)benzamide]]
inhibition at 100 µg/mL ([1]; 100 μg/ml): 35% | inhibition at 30 µg/mL [2]: 8% | inhibition at 100 µg/mL ([2]; 100 μg/ml): 95%

O=C(NCN1CCCCC1)c1ccccc1SSc1ccccc1C(=O)NCN1CCCCC1 [Compound XXXVII, 2,2'-dithiobis(N-piperidinylmethylbenzamide)]
inhibition at 100 µg/mL ([1]; 100 μg/ml): 20%

O=C(NCC(O)c1ccccc1)c1ccccc1SSc1ccccc1C(=O)NCC(O)c1ccccc1 (stereo not drawn) [Compound XXXVIII, 2,2'-dithiobis(N-2-hydroxy-2-phenylethylbenzamide)]
inhibition at 100 µg/mL ([1]; 100 μg/ml): 12% | inhibition at 100 µg/mL ([2]; 100 μg/ml): 19%

Nc1ncnc2c1ncn2[C@@H]1O[C@H](CO)[C@@H](O)[C@H]1O [adenosine, reference compound]
inhibition at 100 µg/mL ([1]; 100 μg/ml): 39%
